According to ChEMBL document CHEMBL1149760, “Chemoenzymatic synthesis and antimicrobial activity evaluation of monogalactosyl diglycerides” (2008):

Key:
Format in all cases: functional
Enterococcus faecalis = experiment: Antimicrobial activity against Enterococcus faecalis ATCC 29212 by agar dilution method
Staphylococcus aureus [1] = experiment: Antimicrobial activity against Staphylococcus aureus SA52 by agar dilution method
[2] = tested on: Mycobacterium tuberculosis; experiment: Antimicrobial activity against Mycobacterium tuberculosis H37Rv by agar dilution method
Staphylococcus aureus [3] = experiment: Antimicrobial activity against Staphylococcus aureus ATCC 25923 by agar dilution method
[4] = tested on: Mycobacterium tuberculosis; experiment: Antimicrobial activity against Mycobacterium tuberculosis H160 by agar dilution method
Pseudomonas aeruginosa = experiment: Antimicrobial activity against Pseudomonas aeruginosa ATCC 27753 by agar dilution method
[5] = tested on: Mycobacterium tuberculosis; experiment: Antimicrobial activity against Mycobacterium tuberculosis H190 by agar dilution method
Staphylococcus aureus [6] = experiment: Antimicrobial activity against Staphylococcus aureus SA85 by agar dilution method
Staphylococcus aureus [7] = experiment: Antimicrobial activity against Staphylococcus aureus SA87 by agar dilution method
Bacillus subtilis = experiment: Antimicrobial activity against Bacillus subtilis ATCC 6633 by agar dilution method
Kluyveromyces marxianus = experiment: Antifungal activity against Candida pseudotropicalis by agar dilution method
Candida albicans = experiment: Antifungal activity against Candida albicans by agar dilution method
Staphylococcus aureus [8] = experiment: Antimicrobial activity against Staphylococcus aureus ATCC 105487 by agar dilution method
Escherichia coli = experiment: Antimicrobial activity against Escherichia coli ATCC 25922 by agar dilution method

Compound `CCCCC/C=C/C/C=C/CCCCCCCC(=O)OC(COC(=O)CCCCCCCCC)CO[C@@H]1O[C@H](CO)[C@H](O)[C@H](O)[C@H]1O` (mixture of isomers) has an MIC (Enterococcus faecalis) of 128 µg/mL, an MIC (Staphylococcus aureus [1]) of over 128 µg/mL and an MIC [2] of over 128 µg/mL. The MIC (Staphylococcus aureus [3]) was over 128 µg/mL, the MIC [4] was over 128 µg/mL and the MIC (Pseudomonas aeruginosa) was over 128 µg/mL. The MIC [5] was over 128 µg/mL, the MIC (Staphylococcus aureus [6]) was 64 µg/mL and the MIC (Staphylococcus aureus [7]) was 64 µg/mL. For the same compound, the MIC (Bacillus subtilis) was 128 µg/mL, the MIC (Kluyveromyces marxianus) was over 128 µg/mL and the MIC (Candida albicans) was over 128 µg/mL. The MIC (Staphylococcus aureus [8]) was 64 µg/mL and the MIC (Escherichia coli) was over 128 µg/mL.
Work on `CCCCC/C=C/C/C=C/CCCCCCCC(=O)OC(COC(=O)CCCCCCC)CO[C@@H]1O[C@H](CO)[C@H](O)[C@H](O)[C@H]1O` (mixture of isomers) yielded an MIC (Enterococcus faecalis) of over 128 µg/mL, an MIC (Staphylococcus aureus [1]) of over 128 µg/mL and an MIC [2] of 64 µg/mL. For the same compound, the MIC (Staphylococcus aureus [3]) was over 128 µg/mL, the MIC [4] was 64 µg/mL and the MIC (Pseudomonas aeruginosa) was over 128 µg/mL. It also gave an MIC [5] of 128 µg/mL, an MIC (Staphylococcus aureus [6]) of over 128 µg/mL and an MIC (Staphylococcus aureus [7]) of 128 µg/mL. For the same compound, the MIC (Bacillus subtilis) was 128 µg/mL, the MIC (Kluyveromyces marxianus) was over 128 µg/mL and the MIC (Candida albicans) was over 128 µg/mL. The MIC (Staphylococcus aureus [8]) was over 128 µg/mL and the MIC (Escherichia coli) was over 128 µg/mL.
Work on `CC/C=C/C/C=C/C/C=C/CCCCCCCC(=O)OCC(CO[C@@H]1O[C@H](CO)[C@H](O)[C@H](O)[C@H]1O)OC(=O)CCCCCCC/C=C/C/C=C/C/C=C/CC` (mixture of isomers) yielded an MIC (Enterococcus faecalis) of over 128 µg/mL, an MIC (Staphylococcus aureus [1]) of over 128 µg/mL and an MIC [2] of over 128 µg/mL. It also gave an MIC (Staphylococcus aureus [3]) of 128 µg/mL, an MIC [4] of over 128 µg/mL and an MIC (Pseudomonas aeruginosa) of over 128 µg/mL. The MIC [5] was over 128 µg/mL, the MIC (Staphylococcus aureus [6]) was over 128 µg/mL and the MIC (Staphylococcus aureus [7]) was over 128 µg/mL. It also gave an MIC (Bacillus subtilis) of over 128 µg/mL, an MIC (Kluyveromyces marxianus) of over 128 µg/mL and an MIC (Candida albicans) of over 128 µg/mL. It also gave an MIC (Staphylococcus aureus [8]) of over 128 µg/mL and an MIC (Escherichia coli) of over 128 µg/mL.
Compound `CCCCCCCC/C=C/CCCCCCCC(=O)OC(COC(=O)CCCCCCCCC)CO[C@@H]1O[C@H](CO)[C@H](O)[C@H](O)[C@H]1O` (mixture of isomers) has an MIC (Enterococcus faecalis) of over 128 µg/mL, an MIC (Staphylococcus aureus [1]) of over 128 µg/mL and an MIC [2] of over 128 µg/mL. It also gave an MIC (Staphylococcus aureus [3]) of 128 µg/mL, an MIC [4] of over 128 µg/mL and an MIC (Pseudomonas aeruginosa) of over 128 µg/mL. For the same compound, the MIC [5] was over 128 µg/mL, the MIC (Staphylococcus aureus [6]) was 128 µg/mL and the MIC (Staphylococcus aureus [7]) was over 128 µg/mL. The MIC (Bacillus subtilis) was 32 µg/mL, the MIC (Kluyveromyces marxianus) was over 128 µg/mL and the MIC (Candida albicans) was over 128 µg/mL. The MIC (Staphylococcus aureus [8]) was over 128 µg/mL and the MIC (Escherichia coli) was over 128 µg/mL.
For `CC/C=C/C/C=C/C/C=C/CCCCCCCC(=O)OC(COC(=O)CCCCCCCCC)CO[C@@H]1O[C@H](CO)[C@H](O)[C@H](O)[C@H]1O` (mixture of isomers), the MIC (Enterococcus faecalis) was over 128 µg/mL, the MIC (Staphylococcus aureus [1]) was over 128 µg/mL and the MIC [2] was over 128 µg/mL. For the same compound, the MIC (Staphylococcus aureus [3]) was over 128 µg/mL, the MIC [4] was over 128 µg/mL and the MIC (Pseudomonas aeruginosa) was over 128 µg/mL. For the same compound, the MIC [5] was over 128 µg/mL, the MIC (Staphylococcus aureus [6]) was 64 µg/mL and the MIC (Staphylococcus aureus [7]) was 32 µg/mL. The MIC (Bacillus subtilis) was over 128 µg/mL, the MIC (Kluyveromyces marxianus) was over 128 µg/mL and the MIC (Candida albicans) was over 128 µg/mL. It also gave an MIC (Staphylococcus aureus [8]) of over 128 µg/mL and an MIC (Escherichia coli) of over 128 µg/mL.
Work on `CC/C=C/C/C=C/C/C=C/CCCCCCCC(=O)OC(COC(=O)CCCCCCC)CO[C@@H]1O[C@H](CO)[C@H](O)[C@H](O)[C@H]1O` (mixture of isomers) yielded an MIC (Enterococcus faecalis) of over 128 µg/mL, an MIC (Staphylococcus aureus [1]) of over 128 µg/mL and an MIC [2] of 128 µg/mL. It also gave an MIC (Staphylococcus aureus [3]) of over 128 µg/mL, an MIC [4] of 128 µg/mL and an MIC (Pseudomonas aeruginosa) of over 128 µg/mL. It also gave an MIC [5] of 128 µg/mL, an MIC (Staphylococcus aureus [6]) of over 128 µg/mL and an MIC (Staphylococcus aureus [7]) of 64 µg/mL. For the same compound, the MIC (Bacillus subtilis) was 128 µg/mL, the MIC (Kluyveromyces marxianus) was over 128 µg/mL and the MIC (Candida albicans) was over 128 µg/mL. For the same compound, the MIC (Staphylococcus aureus [8]) was over 128 µg/mL and the MIC (Escherichia coli) was over 128 µg/mL.
In the case of `CCCCCCCC/C=C/CCCCCCCC(=O)OC(COC(=O)CCCCCCC)CO[C@@H]1O[C@H](CO)[C@H](O)[C@H](O)[C@H]1O` (mixture of isomers), the MIC (Enterococcus faecalis) is reported as over 128 µg/mL, the MIC (Staphylococcus aureus [1]) is reported as over 128 µg/mL and the MIC [2] is reported as 128 µg/mL. It also gave an MIC (Staphylococcus aureus [3]) of over 128 µg/mL, an MIC [4] of 64 µg/mL and an MIC (Pseudomonas aeruginosa) of over 128 µg/mL. The MIC [5] was 64 µg/mL, the MIC (Staphylococcus aureus [6]) was over 128 µg/mL and the MIC (Staphylococcus aureus [7]) was 64 µg/mL. For the same compound, the MIC (Bacillus subtilis) was 128 µg/mL, the MIC (Kluyveromyces marxianus) was over 128 µg/mL and the MIC (Candida albicans) was over 128 µg/mL. The MIC (Staphylococcus aureus [8]) was over 128 µg/mL and the MIC (Escherichia coli) was over 128 µg/mL.
Work on `CCCCC/C=C/C/C=C/CCCCCCCC(=O)OCC(CO[C@@H]1O[C@H](CO)[C@H](O)[C@H](O)[C@H]1O)OC(=O)CCCCCCC/C=C/C/C=C/CCCCC` (mixture of isomers) yielded an MIC (Enterococcus faecalis) of over 128 µg/mL, an MIC (Staphylococcus aureus [1]) of over 128 µg/mL and an MIC [2] of 128 µg/mL. The MIC (Staphylococcus aureus [3]) was over 128 µg/mL, the MIC [4] was 128 µg/mL and the MIC (Pseudomonas aeruginosa) was over 128 µg/mL. For the same compound, the MIC [5] was 128 µg/mL, the MIC (Staphylococcus aureus [6]) was over 128 µg/mL and the MIC (Staphylococcus aureus [7]) was 128 µg/mL. For the same compound, the MIC (Bacillus subtilis) was 128 µg/mL, the MIC (Kluyveromyces marxianus) was over 128 µg/mL and the MIC (Candida albicans) was over 128 µg/mL. It also gave an MIC (Staphylococcus aureus [8]) of over 128 µg/mL and an MIC (Escherichia coli) of over 128 µg/mL.
For `CCCCCCCC/C=C/CCCCCCCC(=O)OCC(CO[C@@H]1O[C@H](CO)[C@H](O)[C@H](O)[C@H]1O)OC(=O)CCCCCCC/C=C/CCCCCCCC` (mixture of isomers), the MIC (Enterococcus faecalis) was over 128 µg/mL, the MIC (Staphylococcus aureus [1]) was over 128 µg/mL and the MIC [2] was over 128 µg/mL. The MIC (Staphylococcus aureus [3]) was over 128 µg/mL, the MIC [4] was over 128 µg/mL and the MIC (Pseudomonas aeruginosa) was over 128 µg/mL. The MIC [5] was over 128 µg/mL, the MIC (Staphylococcus aureus [6]) was over 128 µg/mL and the MIC (Staphylococcus aureus [7]) was over 128 µg/mL. It also gave an MIC (Bacillus subtilis) of over 128 µg/mL, an MIC (Kluyveromyces marxianus) of over 128 µg/mL and an MIC (Candida albicans) of over 128 µg/mL. The MIC (Staphylococcus aureus [8]) was over 128 µg/mL and the MIC (Escherichia coli) was over 128 µg/mL.
